The target in one series is T1, hGIPR (Homo sapiens, UniProt P48546).
T1 construct: expressed in transfected cells; host or cells: CHO CRE-luciferase reporter cells
T1 sequence (P48546 22-466): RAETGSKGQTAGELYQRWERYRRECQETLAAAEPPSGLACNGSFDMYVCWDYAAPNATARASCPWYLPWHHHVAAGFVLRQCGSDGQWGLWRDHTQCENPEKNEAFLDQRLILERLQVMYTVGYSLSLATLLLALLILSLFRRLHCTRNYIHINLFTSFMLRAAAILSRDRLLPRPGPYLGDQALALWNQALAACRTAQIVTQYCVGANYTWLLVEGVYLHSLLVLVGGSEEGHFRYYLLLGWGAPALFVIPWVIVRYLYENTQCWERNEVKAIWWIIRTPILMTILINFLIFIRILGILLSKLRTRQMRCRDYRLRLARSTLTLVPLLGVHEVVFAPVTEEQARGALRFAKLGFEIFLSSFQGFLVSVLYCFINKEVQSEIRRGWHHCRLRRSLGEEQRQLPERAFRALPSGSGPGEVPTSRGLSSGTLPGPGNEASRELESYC
Briefly: hGIPR CreLuc assay in 0.5% and 100% plasma (CHO CRE-luciferase reporter cells). The class given is cell-based. The settings on record: 0.5% human plasma, read-out: hGIPR 0.5% hP.

The next series concerns the target T2, hNPY2R (Homo sapiens, UniProt P49146).
T2 construct: expressed in transfected cells; host or cells: HEK-293 CRE-luciferase reporter cells
T2 sequence (P49146 1-381): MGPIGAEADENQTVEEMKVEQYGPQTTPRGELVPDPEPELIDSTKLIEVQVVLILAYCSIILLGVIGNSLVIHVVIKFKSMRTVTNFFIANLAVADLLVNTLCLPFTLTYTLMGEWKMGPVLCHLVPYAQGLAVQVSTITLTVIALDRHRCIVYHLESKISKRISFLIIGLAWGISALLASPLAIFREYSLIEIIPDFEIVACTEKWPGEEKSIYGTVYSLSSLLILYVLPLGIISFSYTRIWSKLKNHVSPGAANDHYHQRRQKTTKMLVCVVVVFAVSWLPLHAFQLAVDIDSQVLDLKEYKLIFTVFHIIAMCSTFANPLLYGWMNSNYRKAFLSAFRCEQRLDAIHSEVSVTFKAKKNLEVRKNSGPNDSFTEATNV
The series can be described thus: hNPY2R CreLuc assay in 0.5% and 100% plasma (HEK-293 CRE-luciferase reporter cells). Format: cell-based. The settings on record: HEK-293 reporter cells.

Series [1] is described as follows: Solubility in 0.1 M phosphate buffer at pH 7. The settings on record: 0.1 M phosphate buffer at pH 7, 10 mg/mL final peptide concentration, shaking 2 hours at room temperature, peptides as TFA-salts; measured sample pH 6.5-7.0. The class given is physicochemical.
[2] abbreviates: 0.5% human plasma, read-out: hNPY2R 0.5% hP.

Read-outs that look alike come from different tables or passages of the source.

As for `CC[C@H](C)[C@H](NC(=O)[C@H](CO)NC(=O)[C@H](Cc1ccc(O)cc1)NC(=O)[C@H](CC(=O)O)NC(=O)[C@H](CO)NC(=O)[C@@H](NC(=O)[C@H](Cc1ccccc1)NC(=O)[C@@H](NC(=O)CNC(=O)[C@H](CCC(=O)O)NC(=O)C(C)(C)NC(=O)[C@@H](N)Cc1ccc(O)cc1)[C@@H](C)O)[C@@H](C)O)C(=O)N[C@@H](C)C(=O)N[C@@H](CC(C)C)C(=O)N[C@@H](CCC(=O)O)C(=O)N[C@@H](CCCCN)C(=O)N[C@@H](CCC(N)=O)C(=O)N[C@@H](C)C(=O)N[C@@H](CCC(N)=O)C(=O)NC(C)(C)C(=O)N[C@@H](C)C(=O)N[C@@H](Cc1ccccc1)C(=O)N[C@H](C(=O)N[C@@H](CCCNC(=N)N)C(=O)N[C@@H](Cc1c[nH]cn1)C(=O)N[C@@H](CC(C)C)C(=O)N[C@H](C(=O)N[C@@H](CC(N)=O)C(=O)N[C@@H](CCCCNC(=O)[C@@H](N)CCCCNC(=O)CC[C@H](NC(=O)CC[C@H](NC(=O)CC[C@H](NC(=O)CC[C@H](NC(=O)CC[C@H](NC(=O)CC[C@H](NC(=O)CCCCCCCCCCCCCCCCC(=O)O)C(=O)O)C(=O)O)C(=O)O)C(=O)O)C(=O)O)C(=O)O)C(=O)NC(C)(C)C(=O)N[C@H](C(=O)N[C@@H](CCCNC(=N)N)C(=O)N[C@@H](CCC(N)=O)C(=O)N[C@@H](CCCNC(=N)N)C(=O)N[C@@H](Cc1ccc(O)cc1)C(N)=O)[C@@H](C)O)[C@@H](C)CC)C(C)C` [Compound 165, Y-Aib-E-G-T-F-T-S-D-Y-S-I-A-L-E-K-Q-A-Q-Aib-A-F-V-R-H-L-I-N-K(1,3)-Aib-T-R-Q-R-Y-NH2.C18DA-gGlu-gGlu-gGlu-gGlu-gGlu-gGlu-eLys(1,2)], the EC50 at hGIPR turned out to be 0.3 nM; on hNPY2R (setting [2]), 17.1 nM. The solubility at 2 h in series [1] turned out to be 5000 µg/mL.
Regarding `CC[C@H](C)[C@H](NC(=O)[C@H](CC(C)C)NC(=O)[C@H](Cc1c[nH]cn1)NC(=O)[C@H](CCCNC(=N)N)NC(=O)[C@@H](NC(=O)[C@H](Cc1ccccc1)NC(=O)[C@H](C)NC(=O)[C@H](CCC(=O)O)NC(=O)[C@H](CCC(N)=O)NC(=O)[C@H](C)NC(=O)[C@H](CCC(N)=O)NC(=O)[C@H](CCCCN)NC(=O)[C@H](CCC(=O)O)NC(=O)[C@H](CC(C)C)NC(=O)C(C)(C)NC(=O)[C@@H](NC(=O)[C@H](CO)NC(=O)[C@H](Cc1ccc(O)cc1)NC(=O)[C@H](CC(=O)O)NC(=O)[C@H](CO)NC(=O)[C@@H](NC(=O)[C@H](Cc1ccccc1)NC(=O)[C@@H](NC(=O)CNC(=O)[C@H](CCC(=O)O)NC(=O)C(C)(C)NC(=O)[C@@H](N)Cc1ccc(O)cc1)[C@@H](C)O)[C@@H](C)O)[C@@H](C)CC)C(C)C)C(=O)N[C@@H](CC(N)=O)C(=O)N[C@@H](CCCCNC(=O)[C@@H](N)CCCCNC(=O)CC[C@H](NC(=O)CC[C@H](NC(=O)CC[C@H](NC(=O)CC[C@H](NC(=O)CC[C@H](NC(=O)CC[C@H](NC(=O)CCCCCCCCCCCCCCCCC(=O)O)C(=O)O)C(=O)O)C(=O)O)C(=O)O)C(=O)O)C(=O)O)C(=O)NC(C)(C)C(=O)N[C@H](C(=O)N[C@@H](CCCNC(=N)N)C(=O)N[C@@H](CCC(N)=O)C(=O)N[C@@H](CCCNC(=N)N)C(=O)N[C@@H](Cc1ccc(O)cc1)C(N)=O)[C@@H](C)O` [Compound 170, Y-Aib-E-G-T-F-T-S-D-Y-S-I-Aib-L-E-K-Q-A-Q-E-A-F-V-R-H-L-I-N-K(1,3)-Aib-T-R-Q-R-Y-NH2.C18DA-gGlu-gGlu-gGlu-gGlu-gGlu-gGlu-eLys(1,2)], the EC50 amounted to 0.4 nM on hGIPR and 43.8 nM at hNPY2R (setting [2]). Further, the solubility at 2 h in series [1] amounted to 4600 µg/mL.
As to `CC[C@H](C)[C@H](NC(=O)[C@H](CC(C)C)NC(=O)[C@H](Cc1c[nH]cn1)NC(=O)[C@H](CCCNC(=N)N)NC(=O)[C@@H](NC(=O)[C@H](Cc1ccccc1)NC(=O)[C@H](C)NC(=O)C(C)(C)NC(=O)[C@H](CCC(N)=O)NC(=O)[C@H](C)NC(=O)[C@H](CCC(N)=O)NC(=O)[C@H](CCCCN)NC(=O)[C@H](CCC(=O)O)NC(=O)[C@H](CC(C)C)NC(=O)C(C)(C)NC(=O)[C@@H](NC(=O)[C@H](CO)NC(=O)[C@H](Cc1ccc(O)cc1)NC(=O)[C@H](CC(=O)O)NC(=O)[C@H](CO)NC(=O)[C@@H](NC(=O)[C@H](Cc1ccccc1)NC(=O)[C@@H](NC(=O)CNC(=O)[C@H](CCC(=O)O)NC(=O)C(C)(C)NC(=O)[C@@H](N)Cc1ccc(O)cc1)[C@@H](C)O)[C@@H](C)O)[C@@H](C)CC)C(C)C)C(=O)N[C@@H](CC(N)=O)C(=O)N[C@@H](CCCCNC(=O)[C@@H](N)CCCCNC(=O)CC[C@H](NC(=O)CC[C@H](NC(=O)CC[C@H](NC(=O)CC[C@H](NC(=O)CC[C@H](NC(=O)CC[C@H](NC(=O)CCCCCCCCCCCCCCCCC(=O)O)C(=O)O)C(=O)O)C(=O)O)C(=O)O)C(=O)O)C(=O)O)C(=O)N[C@@H](Cc1c[nH]c2ccccc12)C(=O)N[C@H](C(=O)N[C@@H](CCCNC(=N)N)C(=O)N[C@@H](CCC(N)=O)C(=O)N[C@@H](CCCNC(=N)N)C(=O)N[C@@H](Cc1ccc(O)cc1)C(N)=O)[C@@H](C)O` [Compound 172, Y-Aib-E-G-T-F-T-S-D-Y-S-I-Aib-L-E-K-Q-A-Q-Aib-A-F-V-R-H-L-I-N-K(1,3)-W-T-R-Q-R-Y-NH2.C18DA-gGlu-gGlu-gGlu-gGlu-gGlu-gGlu-eLys(1,2)], the EC50 on hGIPR amounted to 1.7 nM; at hNPY2R (100% human plasma, read-out: hNPY2R 100% hP), 136 nM. Also, in series [1], the solubility at 2 h is 3100 µg/mL.
`CC[C@H](C)[C@H](NC(=O)[C@H](CC(C)C)NC(=O)[C@H](Cc1c[nH]cn1)NC(=O)[C@H](CCCNC(=N)N)NC(=O)[C@@H](NC(=O)[C@H](Cc1ccccc1)NC(=O)[C@H](C)NC(=O)C(C)(C)NC(=O)[C@H](CCC(N)=O)NC(=O)[C@H](C)NC(=O)[C@H](CCC(N)=O)NC(=O)[C@H](CCCCN)NC(=O)[C@H](CCC(=O)O)NC(=O)[C@H](CC(C)C)NC(=O)C(C)(C)NC(=O)[C@@H](NC(=O)[C@H](CO)NC(=O)[C@H](Cc1ccc(O)cc1)NC(=O)[C@H](CC(=O)O)NC(=O)[C@H](CO)NC(=O)[C@@H](NC(=O)[C@H](Cc1ccccc1)NC(=O)[C@@H](NC(=O)CNC(=O)[C@H](CCC(=O)O)NC(=O)C(C)(C)NC(=O)[C@@H](N)Cc1ccc(O)cc1)[C@@H](C)O)[C@@H](C)O)[C@@H](C)CC)C(C)C)C(=O)N[C@@H](CC(N)=O)C(=O)N[C@@H](CCCCNC(=O)CC[C@H](NC(=O)CC[C@H](NC(=O)CC[C@H](NC(=O)CC[C@H](NC(=O)CC[C@H](NC(=O)CCCCCCCCCCCCCCCCCCC(=O)O)C(=O)O)C(=O)O)C(=O)O)C(=O)O)C(=O)O)C(=O)NC(C)(C)C(=O)N[C@H](C(=O)N[C@@H](CCCNC(=N)N)C(=O)N[C@@H](CCC(N)=O)C(=O)N[C@@H](CCCNC(=N)N)C(=O)N[C@@H](Cc1ccc(O)cc1)C(N)=O)[C@@H](C)O` [Compound 176, Y-Aib-E-G-T-F-T-S-D-Y-S-I-Aib-L-E-K-Q-A-Q-Aib-A-F-V-R-H-L-I-N-K(1,3)-Aib-T-R-Q-R-Y-NH2.C20DA-gGlu-gGlu-gGlu-gGlu-gGlu(1,2)]: the EC50 at hGIPR was 0.6 nM; at hNPY2R (setting [2]) it was 32.8 nM. Moreover, in series [1], the solubility at 2 h came out at 5300 µg/mL.
